These compounds were tested against T1, human C5a receptor (CD88) (Homo sapiens, UniProt P21730) (assay: C5a induced enzyme (glucosaminidase) release assay in RBL cells expressing the human C5a receptor (Example 28)). Details: RBL cells with human C5aR; read-out: IC50 for the inhibition of C5a induced enzyme release.
T1 construct: expressed in transfected cells; host or cells: rat basophilic leukemia (RBL) cells, stably transfected
T1 sequence (P21730 1-350): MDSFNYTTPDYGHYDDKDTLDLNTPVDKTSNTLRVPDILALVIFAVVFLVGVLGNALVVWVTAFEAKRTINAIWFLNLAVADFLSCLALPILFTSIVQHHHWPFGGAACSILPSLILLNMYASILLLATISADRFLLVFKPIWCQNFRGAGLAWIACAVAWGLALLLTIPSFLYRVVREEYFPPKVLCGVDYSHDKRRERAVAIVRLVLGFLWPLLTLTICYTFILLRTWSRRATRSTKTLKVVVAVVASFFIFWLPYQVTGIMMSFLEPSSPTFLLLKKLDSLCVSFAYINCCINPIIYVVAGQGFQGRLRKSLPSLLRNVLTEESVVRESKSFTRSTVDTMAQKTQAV
Type: cell-based
Summary of the method: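 Rat basophilic leukemia (RBL) cells expressing human C5a receptor, at 2×10^6 cells/ml, primed with cytochalasin B, then incubated with test compound 10 min at 37 °C.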
CCc1c(N)cc(Cl)c(CC)c1NC(=O)N(Cc1ccc(C)nc1)c1ccc(OC)c2ccccc12 gave an IC50 of 55 nM.
CCc1c(N)cc(Cl)c(CC)c1NC(=O)N(c1ccc(C(C)C)cc1)[C@@H](C)c1ccc(OC)cc1 [compound 66, (S)-3-(3-amino-5-chloro-2,6-diethyl-phenyl)-1-(4-isopropyl-phenyl)-1-[1-(4-methoxy-phenyl)-ethyl]-urea] showed an IC50 of 55 nM.
Compound CCc1c(N)cc(Cl)c(CC)c1NC(=O)N(c1ccc(C(C)C)cc1)[C@@H](C)c1ccc(F)cc1 [(S)-3-(3-Amino-5-chlor-2,6-diethyl-phenyl)-1-[1-(4-fluor-phe] has an IC50 of 38 nM.
Compound CCc1c(N)cc(Cl)c(CC)c1NC(=O)N(c1ccc(NC)cc1)[C@@H](C)c1ccc(Cl)cc1 has an IC50 of 3 nM.

Same assay, conditions: inhibition of C5a induced enzyme release, RBL cells with human C5aR; read-out: Activity-range (antagonistic activity, IC50 enzyme release)
For CCc1ccc(N(Cc2ccc(C#N)cc2)C(=O)Nc2c(CC)c(N)cc(Cl)c2CC)cc1 [compound 113, 3-(3-amino-5-chloro-2,6-diethyl-phenyl)-1-(4-cyano-benzyl)-1-(4-ethyl-phenyl)-urea], the IC50 was 200 to 5000 nM.
For CCc1c(N)cc(Cl)c(CC)c1NC(=O)N(Cc1ccc(S(C)(=O)=O)cc1)c1ccc(C(C)C)cc1 [compound 64, 3-(3-amino-5-chloro-2,6-diethyl-phenyl)-1-(4-isopropyl-phenyl)-1-(4-methansulfonyl-benzyl)-urea], the IC50 was 200 to 5000 nM.
Compound CCc1ccc(N)c(CC)c1NC(=O)N(c1ccc(C(C)C)cc1)C1CCc2ccccc21 (stereo not shown) [compound 90, 3-(3-amino-2,6-diethyl-phenyl)-1-indane-1-yl-1-(4-isopropyl-phenyl)-urea] has an IC50 of 200 to 5000 nM.
For CCc1ccc(N)c(CC)c1NC(=O)N(Cc1ccc(C(F)(F)F)cc1)c1ccc(C(C)C)cc1 [compound 50, 3-(3-amino-2,6-diethyl-phenyl)-1-(4-isopropyl-phenyl)-1-(4-trifluoromethyl-benzyl)-urea], the IC50 was 200 to 5000 nM.
CCc1ccc(NCC(=O)OC)c(CC)c1NC(=O)N(Cc1ccc(OC)cc1)c1ccc(C(C)C)cc1 [compound 30, {2,4-diethyl-3-[3-(4-isopropyl-phenyl)-3-(4-methoxy-benzyl)-ureido]-phenylamino}-acetic acid methyl ester] gave an IC50 of 200 to 5000 nM.
Compound CCc1ccc(N(Cc2ccc3c(c2)ncn3C)C(=O)Nc2c(CC)c(N)cc(Cl)c2CC)cc1 [compound 118, 3-(3-amino-5-chloro-2,6-diethyl-phenyl)-1-(4-ethyl-phenyl)-1-(1-methyl-1H-benzoimidazol-5-ylmethyl)-urea] has an IC50 of 200 to 5000 nM.
With CCc1c(Cl)cc(NCC(N)=O)c(CC)c1NC(=O)N(Cc1ccc(OC)cc1)c1ccc(C(C)C)cc1 [compound 46, 2-{5-chloro-2,4-diethyl-3-[3-(4-isopropyl-phenyl)-3-(4-methoxy-benzyl)-ureido]-phenylamino}-acetamide] the IC50 was 200 to 5000 nM.
CCc1c(N)cc(Cl)c(CC)c1NC(=O)N(Cc1ccc(C)nc1)c1ccc(OC)cc1F [compound 124, 3-(3-amino-5-chloro-2,6-diethyl-phenyl)-1-(2-fluoro-4-methoxy-phenyl)-1-(6-methyl-pyridin-3-ylmethyl)-urea] showed an IC50 of 200 to 5000 nM.
With CCc1ccc(N)c(CC)c1NC(=O)N(Cc1ccc(C)cc1)c1ccc(C(C)C)cc1 [compound 39, 3-(3-amino-2,6-diethyl-phenyl)-1-(4-isopropyl-phenyl)-1-(4-methyl-benzyl)-urea] the IC50 was 200 to 5000 nM.
Compound CCc1ccc(N(C(=O)Nc2c(CC)c(N)cc(Cl)c2CC)C(C)c2ccc(C)nc2)cc1 (stereo not shown) [compound 123, 3-(3-amino-5-chloro-2,6-diethyl-phenyl)-1-(4-ethyl-phenyl)-1-[1-(6-methyl-pyridin-3-yl)-ethyl]-urea] has an IC50 of 60 to 200 nM.
With CCc1c(N)cc(Cl)c(CC)c1NC(=O)N(c1ccc(C(C)C)cc1)C1CCc2ccccc21 (stereo not shown) [compound 84, 3-(3-amino-5-chloro-2,6-diethyl-phenyl)-1-indane-1-yl-1-(4-isopropyl-phenyl)-urea] the IC50 was 200 to 5000 nM.
Compound CCc1c(N)cc(Cl)c(CC)c1NC(=O)N(c1ccc(OC)c(F)c1)[C@@H](C)c1ccc(Cl)cc1 [compound 94, (S)-3-(3-amino-5-chloro-2,6-diethyl-phenyl)-1-[1-(4-chloro-phenyl)-ethyl]-1-(3-fluoro-4-methoxy-phenyl)-urea] has an IC50 of less than 60 nM.
With CCc1c(N)cc(Cl)c(CC)c1NC(=O)N(Cc1ccccc1)c1ccc(NC)cc1 [compound 129, 3-(3-amino-5-chloro-2,6-diethyl-phenyl)-1-benzyl-1-(4-methylamino-phenyl)-urea] the IC50 was 60 to 200 nM.
CCc1c(N)cc(Cl)c(CC)c1NC(=O)N(Cc1ccc(Cl)cc1)c1ccc(C(C)C)cc1 [compound 72, 3-(3-amino-5-chloro-2,6-diethyl-phenyl)-1-(4-chlor-benzyl)-1-(4-isopropyl-phenyl)-urea] showed an IC50 of 60 to 200 nM.
CCc1ccc(N(C(=O)Nc2c(CC)c(N)cc(Cl)c2CC)[C@@H](C)c2ccc(F)cc2)cc1 [compound 82, (S)-3-(3-amino-5-chloro-2,6-diethyl-phenyl)-1-(4-ethyl-phenyl)-1-[1-(4-fluoro-phenyl)-ethyl]-urea] gave an IC50 of 60 to 200 nM.
In the case of CCNc1ccc(CC)c(NC(=O)N(Cc2ccc(OC)cc2)c2ccc(C(C)C)cc2)c1CC [compound 142, 3-(2,6-diethyl-3-ethylamino-phenyl)-1-(4-isopropyl-phenyl)-1-(4-methoxy-benzyl)-urea], the IC50 is reported as greater than 5000 nM.
CCc1ccc(N(Cc2ccc(Br)cc2)C(=O)Nc2c(CC)c(N)cc(Cl)c2CC)cc1 [compound 99, 3-(3-amino-5-chloro-2,6-diethyl-phenyl)-1-(4-bromo-benzyl)-1-(4-ethyl-phenyl)-urea] was tested, and the IC50 was less than 60 nM.
In the case of CCc1c(Cl)cc(NCC(=O)OC)c(CC)c1NC(=O)N(Cc1ccc(OC)cc1)c1ccc(C(C)C)cc1 [compound 55, {5-chloro-2,4-diethyl-3-[3-(4-isopropyl-phenyl)-3-(4-methoxy-benzyl)-ureido]-phenylamino} acetic acid methyl-ester], the IC50 is reported as 200 to 5000 nM.
With CCc1ccc(N)c(CC)c1NC(=O)N(Cc1ccc2c(c1)CCO2)c1ccc(C(C)C)cc1 [compound 67, 3-(3-amino-2,6-diethyl-phenyl)-1-(2,3-dihydro-benzofuran-5-ylmethyl)-1-(4-isopropyl-phenyl)-urea] the IC50 was 200 to 5000 nM.
CCc1c(N)cc(Cl)c(CC)c1NC(=O)N(Cc1ccc(Cl)cc1)c1cccc2ccccc12 [compound 108, 3-(3-amino-5-chloro-2,6-diethyl-phenyl)-1-(4-chloro-benzyl)-1-naphthaline-1-yl-urea] gave an IC50 of 200 to 5000 nM.
In the case of CCc1c(N)cc(Cl)c(CC)c1NC(=O)N(c1ccc(Cl)cc1)[C@@H](C)c1ccc(Cl)cc1 [compound 86, (S)-3-(3-amino-5-chloro-2,6-diethyl-phenyl)-1-(4-chlor-phenyl)-1-[1-(4-chloro-phenyl)-ethyl]-urea], the IC50 is reported as 200 to 5000 nM.
CCc1c(N)cc(Cl)c(CC)c1NC(=O)N(Cc1ccc(Cl)cc1)c1ccc(N(C)C)cc1 [compound 127, 3-(3-amino-5-chloro-2,6-diethyl-phenyl)-1-(4-chloro-benzyl)-1-(4-dimethylamino-phenyl)-urea] gave an IC50 of 200 to 5000 nM.
For CCc1ccc(N(C(=O)Nc2c(CC)c(N)cc(Cl)c2CC)C(C[N+](=O)[O-])c2ccccc2)cc1 (stereo not shown) [compound 112, 3-(3-amino-5-chloro-2,6-diethyl-phenyl)-1-(4-ethyl-phenyl)-1-(2-nitro-1-phenyl-ethyl)-urea], the IC50 was 200 to 5000 nM.

Same assay, conditions: ratio of enzyme release IC50 values
With CCc1c(N)cc(Cl)c(CC)c1NC(=O)N(c1ccc(C(C)C)cc1)[C@@H](C)c1ccc(OC)cc1 [compound 66, (S)-3-(3-amino-5-chloro-2,6-diethyl-phenyl)-1-(4-isopropyl-phenyl)-1-[1-(4-methoxy-phenyl)-ethyl]-urea] the “Times higher antagonistic activity of S configuration than (R) configuration (56)” value was 11.
